According to patent US20210261495A1, “COMPOSITIONS AND METHODS OF USING ITACONIC ACID DERIVATIVES” (ERGON PHARMACEUTICALS, LLC, priority 2018, published 2021):

Assays:
H3K4me3 = assay: Epigenetic modification: H3K4me3 Western immunoblotting in TCR-activated hCD8+ T cells; assay type: cell-based, human; conditions: 10 μM, 72 hrs
Description: Epigenetic Modifications. The ability of a therapeutic agent to alter acetylation and/or methylation of histones was assessed by Western Immunoblotting. Briefly, immune and other type cells were collected after being exposed to the therapeutic agent or vehicle control for a specific period of time, typically 24-72 hrs. They were then lysed and cell lysates from control and treated cells contained equal amounts of proteins were subjected to SDS-PAGE electrophoresis. The presence of acetylated and methylated histone sites was determined by Western Immunoblotting using appropriate antibodies.
Epigenetic Modification. TCR-activated hCD8^+ T cells were exposed to 0 or 10 μM Compound (6) for 72 hrs prior to lysing. Equal amounts of cell lysates were subjected to gel electrophoresis and Western immunoblotting against trimethylated lysine site 4 of histone 3 (H3K4me3). The experiment also included cell lysates from naïve cells. Image J was used for protein quantification. Western immunoblotting against histone 3 (H3) was also performed for normalization purposes. […] Exposure of the hCD8^+ T cells to 10 μM Compound (6) led to the depletion of trimethylated H3K4. H3K4me3 is commonly associated with activation of transcription.

M-MDSCs = assay: Tumor immunophenotyping of CT26 tumors (MDSCs); assay type: in vivo, mice; conditions: 0.2 mg/kg ip, CT26 tumors 250-1500 mm^3
Description: Tumor Immunophenotyping. To determine the effect of a therapeutic agent on a specific immune cell type in vivo, syngeneic tumor models were employed. In a typical experiment, tumors were allowed to grow to a certain size and were then treated for a specific number of days prior to termination. At the end of the experiment, animals were euthanized, tumors were excised and single cell suspensions were immediately obtained through dissociation of tumor tissues with collagenase. Tumor cell suspensions were then subject to FACS analysis in order to determine the presence of various biomarkers.
Tumor Immunophenotyping of CT26 Tumors. CT26-tumor bearing mice treated with either vehicle control or 0.2 mg/kg Compound (6) (ip, twice a day) were euthanized when the tumors had reached a size of 250-1500 mm^3. Tumors were excised and single cell suspensions were obtained using the tumor dissociation kit from Miltenyi Biotec per manufacturer's instructions. The suspensions were analyzed for the presence of MDSCs.

hCD8^+ T cells [1] = assay: hCD8+ T cell differentiation into effector T cells: GZMB release, ELISA; assay type: cell-based, human; conditions: for Granzyme B (% Control): 72 hrs, normalized per number of cells
Description: (§1) Differentiation of T Cells. The ability of T cells to differentiate from a naïve to an effector state was assessed by measuring the levels of IFNγ or GZMB synthesis following activation of the cells using a cocktail of anti-CD2/anti-CD3/anti-CD28 antibodies. Expression of IFNγ, GZMB, and other effector cytokines was measured by determining their concentration in the conditioned media 24-72 hrs after initiation of activation or by estimating the % cells expressing these cytokines using fluorescence-activated cell sorting (FACS).
(§2) Augmentation of hCD8^+ T Cell Differentiation into Effector T Cells. Naïve CD8+ T cells were isolated from human buffy coats using magnetic separation and the appropriate kit from Miltenyi Biotec. Cells were then activated using a cocktail of anti-CD2/anti-CD3/anti-CD28 antibodies. Differentiation of the cells into effector T cells was assessed by determining the levels of IFNγ and GZMB released into the media at 24 and 72 hrs, respectively using appropriate ELISA kits. Cytokine concentrations were normalized per number of cells present and expressed as % Untreated Control.

[2] = tested on: CT26 mouse colorectal tumors; assay: Survival and tumor growth of CT26 tumor-bearing mice; assay type: in vivo, C57BL/6 mice
Description: In Vivo Anti-Tumor Effect. The anticancer properties of the therapeutic agent were evaluated in vivo by determining the ability of the agent to suppress tumor growth and/or increase survival of tumor-bearing animals. In a typical experiment, 0.1-1×10^6 tumor cells, suspended in PBS containing 20% Matrigel, were injected subcutaneously in the right flank of each mouse. When the tumors became palpable, the animals were randomized into different groups and treatment began. In vivo tests routinely included a vehicle control group and different doses and/or routes of administration of the therapeutic agent. Tumor growth was assessed using calipers and the following formula:
Tumor Volume=length×width×width×½
The Kaplan-Meier analysis was used to estimate the survival probability of the tumor-bearing animals.
C57BL/6 mice were injected subcutaneously in the right flank with 1×10^5 CT26 mouse colorectal tumor cells, suspended in PBS containing 20% Matrigel. The tumors were allowed to grow to −100 mm^3. The mice were randomized into two groups (n=6 animals/group): one group received vehicle control and the other group was treated with i.p. injections of 0.2 mg/kg Compound (6) twice a week (Tuesday-Thursday). The experiment continued for 27 days, at which point the mortality rate of control animals was 80%. […] The experiment was repeated (FIG. 6B). In FIG. 6B, treated animals received oral administrations of 3 mg/kg Compound (6) twice a day.

TNFα = assay: In vitro inflammation assay: TNFα secretion from LPS-stimulated hMDMs, ELISA; assay type: cell-based, human; conditions: concentrations ≥500 μM, 1 μg/mL LPS, 6 h
Description: In Vitro Inflammation Assay. In vitro inflammation was assessed by measuring the concentration of TNFα in the conditioned media of macrophages stimulated with 0.1-1 μg/mL LPS in the presence or absence of the compound of interest after 4-6 hrs.
Inhibition of TNFα secretion. hMDMs were pretreated with various concentrations of Compound (6) for 15 min and then stimulated with 1 μg/mL LPS. Conditioned media were collected 6 h later and TNFα concentrations were determined by ELISA.

hCD8^+ T cells [3] = assay: hCD8+ T cell differentiation into effector T cells: IFNγ release, ELISA; assay type: cell-based, human; conditions: for IFNγ (% Control): 24 hrs, normalized per number of cells
Description: as §1, §2

hCD8^+ T cells [4] = assay: Proliferation of TCR-activated hCD8+ T cells, CFSE dilution; assay type: cell-based, human; conditions: 10 nM, compared to untreated TCR-activated control cells
Description: Augmentation of CD8^+ T Cell Proliferation. Naïve hCD8^+ T cells were isolated from commercially available buffy coats using magnetic separation and the appropriate kit from Miltenyi Biotec. Cells were then subject to TCR activation using a cocktail of anti-CD2/anti-CD^3/anti-CD28 antibodies. Untreated control and treated cells were included in the experiment. The cells were cultured for 72 hrs in TexMACS media (Miltenyi Biotec) without IL-2 and for an additional 48 hrs in TexMACS media containing 20U human IL-2/mL. Cell division was assessed by flow cytometry using the carboxyfluorescein succimidyl ester (CFSE) dilution method.

[5] = 3 mg/kg oral twice a day, end of experiment

**Q.** For `O=C(O)/C(=C\c1ccc(F)cc1)C(Cc1ccccc1)C(=O)O` (stereo not shown) [Compound (6), 2-benzyl-3-[(4-flurophenyl)methylidene]butanedioic acid], which “trimethylated H3K4 (H3K4me3/H3)” value (H3K4me3) is on record?
**A.** depletion

**Q.** What about the “intratumoral frequency of M-MDSCs” value (M-MDSCs) of the same molecule?
**A.** significantly reduces

**Q.** What about the “Granzyme B (% Control)” value (hCD8^+ T cells [1]; 0.1 nM) of the same molecule?
**A.** 117 % Control

**Q.** And the “Granzyme B (% Control)” value (hCD8^+ T cells [1]; 1 nM)?
**A.** 165 % Control

**Q.** What about the “Granzyme B (% Control)” value (hCD8^+ T cells [1]; 10 nM) of the same molecule?
**A.** 504 % Control

**Q.** And the “Granzyme B (% Control)” value (hCD8^+ T cells [1]; 100 nM)?
**A.** 276 % Control

**Q.** And the “Granzyme B (% Control)” value (hCD8^+ T cells [1]; 10 μM)?
**A.** 360 % Control

**Q.** And the “production of GZMB” value (hCD8^+ T cells [1]; low concentrations)?
**A.** increase production

**Q.** And the “survival (Kaplan-Meier)” value ([2]; 0.2 mg/kg i.p. twice a week, 27 days, vs vehicle control)?
**A.** survival advantage

**Q.** What about the “animals with complete tumor regression” value [2, 5] of the same molecule?
**A.** 1/6

**Q.** And the “mice with slower tumor growth” value [2, 5]?
**A.** 5/6

**Q.** And the “survival (Kaplan-Meier)” value ([2]; 3 mg/kg orally twice a day)?
**A.** increased survival

**Q.** And the “secretion of TNFα” value (TNFα)?
**A.** reduced secretion

**Q.** What about the “IFNγ (% Control)” value (hCD8^+ T cells [3]; 1 nM) of the same molecule?
**A.** 129 % Control

**Q.** What about the “IFNγ (% Control)” value (hCD8^+ T cells [3]; 10 nM) of the same molecule?
**A.** 510 % Control

**Q.** And the “IFNγ (% Control)” value (hCD8^+ T cells [3]; 100 nM)?
**A.** 274 % Control

**Q.** And the “IFNγ (% Control)” value (hCD8^+ T cells [3]; 10 μM)?
**A.** 370 % Control

**Q.** What about the “IFNγ (% Control)” value (hCD8^+ T cells [3]; 100 μM) of the same molecule?
**A.** 198 % Control

**Q.** What about the “IFNγ (% Control)” value (hCD8^+ T cells [3]; 500 μM) of the same molecule?
**A.** 47 % Control

**Q.** And the “IFNγ synthesis following TCR activation” value (hCD8^+ T cells [3]; high (>100 μM) concentrations)?
**A.** decrease

**Q.** And the “synthesis of INFγ following TCR activation” value (hCD8^+ T cells [3]; low concentrations, 0.1 nM to 100 μM)?
**A.** increased synthesis

**Q.** What about the “proliferation of TCR-activated hCD8+ T cells” value (hCD8^+ T cells [4]) of the same molecule?
**A.** increased proliferation
